These are literature values, as cited in patent US7208517B1, “Endothelin antagonists” (Abbott Labortories, priority 1994, dated 2007).

In data set [1] the test system is decrease in cerebral blood flow due to subarachnoid hemorrhage (SAH). The following applies: rats; cited from earlier work.
In a further data set the test system is MAP. Particulars: sodium-depleted squirrel monkeys; dosed orally; cited from earlier work.
Data set [2] concerns post-ischaemic renal vasoconstriction. Particulars: rats; cited from earlier work.

As for `COc1cccc(Oc2c(NS(=O)(=O)c3ccc(C(C)(C)C)cc3)ncnc2OCCO)c1` [Ro 46–2005], in data set [1], the “decrease in cerebral blood flow due to subarachnoid hemorrhage (SAH)” value is reported as “prevents the decrease in cerebral blood flow due to subarachnoid hemorrhage (SAH)”. The MAP result in the data set with MAP is reported as “decreases MAP”. Further, the post-ischaemic renal vasoconstriction entry in data set [2] is recorded as “prevents post-ischaemic renal vasoconstriction”.
